# According to US20040038855A1 (priority 1999, published 2004):
# Where two headings read alike, the source gives them in different places.
# Key:
# rat MCH1 receptor = molecular target: T1, rat MCH1 receptor (Rattus norvegicus, UniProt P97639); assay: Binding affinity (Ki) at the rat MCH1 receptor
# T1 construct: expressed in transfected cells
# Description: For binding assays, pellets of transfected cells are suspended in ice-cold buffer (20 mM Tris.HCl, 5 mM EDTA, pH 7.4) and homogenized by sonication for 7 sec. The cell lysates are centrifuged at 200×g for 5 min at 4° C. The supernatants are then centrifuged at 40,000×g for 20 min at 4° C. The resulting pellets are washed once in the homogenization buffer and suspended in binding buffer (see methods for radioligand binding). Protein concentrations are determined by the method of Bradford (1976) using bovine serum albumin as the standard. Binding assays are usually performed immediately, however it is possible to prepare membranes in batch and store frozen in liquid nitrogen for future use.
# Binding is performed at 25° C. for 1 hr. Incubations are terminated by rapid vacuum filtration over GF/C glass fiber filters, presoaked in 5% PEI using 50 mM Tris pH 7.4 containing 0.01% triton X-100 as wash buffer.
# A methanolic solution of methyl (4S)-3-({[3-(4-[3-(acetylamino)phenyl]-3,6-dihydro-1(2H)pyridinyl)propyl]amino}carbonyl)-4-(3,4-difluorophenyl)-6-(methoxymethyl)-2-oxo-1,2,3,4-tetrahydro-5-pyrimidinecarboxylate was exposed to tritium gas at 1 atmosphere pressure in the presence of 5% palladium on carbon with stirring overnight to give the tritiated methyl (4S)-3-{[(3-{4-[3-(acetylamino)phenyl]-1-piperidinyl}propyl)amino]carbonyl}-4-(3,4-difluorophenyl)-6-(methoxymethyl)-2-oxo-1,2,3,4-tetrahydro-5-pyrimidinecarboxylate ((+)-isomer) After purification by reverse phase HPLC (Hypersil ODS, 4.6×100 mm, methanol:H2O:Et3N 10:90:1 to 100:0:1 in 15 min at 1.0 mL/min, with radiochemical and UV detection), this product was used as a radioligand in the MCH1 binding assays. The same procedure was carried out with H2 gas in place of ^3H2 to afford the non-radioactive version of Compound 10.
# [1] = molecular target: T2, human Dopamine D2 receptor (Homo sapiens, UniProt P14416); assay: Binding affinity at the human dopamine D2 receptor; conditions: Table 3c; read-out: hD2 Ki
# T2 construct: purchased BioSignal, Inc. (Montreal, Canada)
# T2 sequence (P14416 whole entry): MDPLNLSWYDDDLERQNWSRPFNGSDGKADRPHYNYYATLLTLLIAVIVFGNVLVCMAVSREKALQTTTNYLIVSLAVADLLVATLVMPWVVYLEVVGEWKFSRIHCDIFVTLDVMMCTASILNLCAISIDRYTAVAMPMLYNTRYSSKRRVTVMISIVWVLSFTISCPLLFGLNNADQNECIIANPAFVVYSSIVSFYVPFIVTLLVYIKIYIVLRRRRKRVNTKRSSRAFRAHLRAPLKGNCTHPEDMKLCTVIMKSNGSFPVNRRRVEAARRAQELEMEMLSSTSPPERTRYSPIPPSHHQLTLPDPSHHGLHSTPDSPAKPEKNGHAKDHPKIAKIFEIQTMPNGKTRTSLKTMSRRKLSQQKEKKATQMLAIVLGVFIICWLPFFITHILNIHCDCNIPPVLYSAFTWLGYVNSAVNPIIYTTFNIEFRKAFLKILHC
# From the text: (§1) Other receptors: Cell membranes expressing human dopamine D1, D2, D4 and rat D3 receptors were purchased through BioSignal, Inc. (Montreal, Canada). Binding assays using the histamine H1 receptor; dopamine receptors; and α1A, α1B, and α2 adrenergic receptors may be carried out according to the procedures described in U.S. Pat. No. 5,780,485, the disclosure of which is hereby incorporated by reference in its entirety into this application. Binding assays using the dopamine D5 receptor may be carried out according to the procedures described in U.S. Pat. No. 5,882,855, the disclosure of which is hereby incorporated by reference in its entirety into this application. Binding assays for the human α1D adrenergic receptor may be carried out according to the procedures described in U.S. Pat. No. 6,156,518, the disclosure of which is hereby incorporated by reference in its entirety into this application.
# [2] = molecular target: T3, human Histamine H1 receptor (Homo sapiens, UniProt P35367); assay: Binding affinity at the human histamine H1 receptor
# T3 construct: expressed in transfected cells
# T3 sequence (P35367 whole entry): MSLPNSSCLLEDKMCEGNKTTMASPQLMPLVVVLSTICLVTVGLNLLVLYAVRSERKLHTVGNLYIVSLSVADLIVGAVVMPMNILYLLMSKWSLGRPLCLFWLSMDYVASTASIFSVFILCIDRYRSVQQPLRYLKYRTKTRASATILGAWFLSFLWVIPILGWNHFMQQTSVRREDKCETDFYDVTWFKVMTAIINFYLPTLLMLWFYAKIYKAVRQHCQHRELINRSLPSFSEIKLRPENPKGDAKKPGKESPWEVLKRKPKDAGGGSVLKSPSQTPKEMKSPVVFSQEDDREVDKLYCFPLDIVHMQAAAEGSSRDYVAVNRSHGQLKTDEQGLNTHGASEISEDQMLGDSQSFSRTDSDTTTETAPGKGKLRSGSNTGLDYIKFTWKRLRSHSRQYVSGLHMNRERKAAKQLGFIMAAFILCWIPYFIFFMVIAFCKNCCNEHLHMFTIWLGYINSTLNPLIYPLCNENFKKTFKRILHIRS
# From the text: as §1
# [3] = molecular target: T4, human Alpha-1a Adrenergic receptor (Homo sapiens, UniProt P35348); assay: Binding affinity at the human alpha-1A adrenergic receptor
# T4 construct: expressed in transfected cells
# T4 sequence (P35348 1-466): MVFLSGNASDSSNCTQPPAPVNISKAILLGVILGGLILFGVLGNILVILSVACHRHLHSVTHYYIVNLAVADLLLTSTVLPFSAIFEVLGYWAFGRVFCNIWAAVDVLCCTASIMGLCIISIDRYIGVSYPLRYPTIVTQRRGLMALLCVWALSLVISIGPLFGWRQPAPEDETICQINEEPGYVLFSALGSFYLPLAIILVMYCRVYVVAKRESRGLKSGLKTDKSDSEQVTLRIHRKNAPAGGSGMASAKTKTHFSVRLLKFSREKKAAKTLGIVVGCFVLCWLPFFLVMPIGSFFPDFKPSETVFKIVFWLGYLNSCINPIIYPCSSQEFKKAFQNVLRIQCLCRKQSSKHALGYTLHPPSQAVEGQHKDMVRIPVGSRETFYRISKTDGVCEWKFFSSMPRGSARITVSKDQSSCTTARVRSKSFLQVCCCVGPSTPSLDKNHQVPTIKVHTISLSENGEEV
# From the text: as §1
# [4] = Examples 38-141, read-out: Ki (nM) rMCH1
# [5] = Table 3c, read-out: hAlpha-1a Ki
# T1 sequence (P97639 whole entry): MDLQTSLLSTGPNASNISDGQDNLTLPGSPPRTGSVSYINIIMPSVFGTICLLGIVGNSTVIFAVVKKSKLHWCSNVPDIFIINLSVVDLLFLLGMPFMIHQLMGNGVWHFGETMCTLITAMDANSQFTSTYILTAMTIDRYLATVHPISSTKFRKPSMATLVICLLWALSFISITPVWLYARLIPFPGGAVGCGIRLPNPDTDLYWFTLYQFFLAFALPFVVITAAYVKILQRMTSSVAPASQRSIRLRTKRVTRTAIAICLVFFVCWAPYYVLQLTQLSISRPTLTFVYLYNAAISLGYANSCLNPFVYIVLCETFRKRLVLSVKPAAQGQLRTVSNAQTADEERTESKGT
SMILES,Ki (rat MCH1 receptor; [4]),"Ki (rat MCH1 receptor; Table 3c, read-out: rMCH1 Ki)",Ki [1],"Ki ([2]; Table 3c, read-out: hH1 Ki)","Ki [3, 5]",Ki (rat MCH1 receptor),"Ki (rat MCH1 receptor; read-out: rMCH1 Ki, Table 3c)",Ki [2],Ki [3]
COC(CCN1CCC(c2cccc(NC(=O)C(C)C)c2)CC1)c1ccccc1 (stereo not drawn) [Example 93],29.1 nM,29.1 nM,35000 nM,16700 nM,1090 nM,–,–,–,–
COC(CCN1CCC(c2cccc(NC(=O)C(C)C)c2)CC1)c1ccc(C)cc1 (stereo not drawn) [Example 99],12 nM,12 nM,10400 nM,2560 nM,434 nM,–,–,–,–
CC(C)C(=O)Nc1cccc(C2CCN(Cc3cc(C(F)(F)F)cc(C(F)(F)F)c3)CC2)c1 [Example 103],52 nM,52 nM,> 50000 nM,36900 nM,> 50000 nM,–,–,–,–
CC(C)C(=O)Nc1cccc(C2CCN(CC[C@H](Oc3ccccc3)c3ccccc3)CC2)c1 [Example 105],–,–,471 nM,–,140 nM,7.1 nM,7.1 nM,39.1 nM,–
CC(C)C(=O)Nc1cccc(C2CCN(CC[C@H](Oc3cccc(Cl)c3)c3ccccc3)CC2)c1 [Example 107],3.1 nM,3.1 nM,152 nM,130 nM,33.5 nM,–,–,–,–
CC(C)C(=O)Nc1cccc(C2CCN(CC[C@H](Oc3ccc(Cl)cc3)c3ccccc3)CC2)c1 [Example 108],3.8 nM,3.8 nM,244 nM,264 nM,13.2 nM,–,–,–,–
CC(C)C(=O)Nc1cccc(C2CCN(CC[C@@H](Oc3cc(F)ccc3F)c3ccccc3)CC2)c1 [Example 110],4.9 nM,4.9 nM,83 nM,283 nM,187 nM,–,–,–,–
CC(C)C(=O)Nc1cccc(C2CCN(CC[C@@H](Oc3ccc(Cl)c(Cl)c3)c3ccccc3)CC2)c1 [Example 111],5 nM,5 nM,162 nM,1100 nM,125 nM,–,–,–,–
CC(C)C(=O)Nc1cccc(C2CCN(CC[C@@H](Oc3ccccc3)c3ccccc3)CC2)c1 [Example 112],–,–,435 nM,–,–,22.3 nM,22.3 nM,32.5 nM,55 nM
CC(C)C(=O)Nc1cccc(C2CCN(CC[C@@H](O)c3ccccc3)CC2)c1 [Example 113],16.6 nM,16.6 nM,42000 nM,48700 nM,3210 nM,–,–,–,–
"CC(C)C(=O)Nc1cccc(C2CCN(CC[C@H](Oc3ccc(C#N)cc3)c3ccccc3)CC2)c1 [Example 114, N-(3-{1-[(3S)-3-(4-cyanophenoxy)-3-phenylpropyl]-4-piperidinyl}phenyl)-2-methylpropanamide]",2.01 nM,20.1 nM,390 nM,590 nM,233 nM,–,–,–,–
COCC1=C(C(=O)OC)C(c2ccc(F)c(F)c2)N(C(=O)NCCCN2CCC(c3cc(F)ccc3OC)CC2)C(=O)N1 (stereo not drawn) [Example 115],12.9 nM,12.9 nM,262 nM,46.9 nM,49.1 nM,–,–,–,–
CC(C)C(=O)Nc1cccc(C2CCN(CC[C@H](Oc3ccc(Br)cc3)c3ccccc3)CC2)c1 [Example 116],0.923 nM,0.923 nM,52 nM,546 nM,22.3 nM,–,–,–,–
COc1cc(C#N)ccc1O[C@@H](CCN1CCC(c2cccc(NC(=O)C(C)C)c2)CC1)c1ccccc1 [Example 118],12.8 nM,12.8 nM,319 nM,25300 nM,719 nM,–,–,–,–
CC(=O)c1ccccc1O[C@H](CCN1CCC(c2cccc(NC(=O)C(C)C)c2)CC1)c1ccccc1 [Example 120],14.8 nM,14.8 nM,313 nM,6990 nM,1140 nM,–,–,–,–
CC(C)C(=O)Nc1cccc(C2CCN(CC[C@@H](Oc3cc(C(F)(F)F)ccc3F)c3ccccc3)CC2)c1 [Example 121],17 nM,17 nM,331 nM,9390 nM,1720 nM,–,–,–,–
CC(C)C(=O)Nc1cccc(C2CCN(CC[C@H](Oc3cc(C(F)(F)F)ccc3F)c3ccccc3)CC2)c1 [Example 122],3.3 nM,3.3 nM,132 nM,3470 nM,944 nM,–,–,–,–

# The next lines start with results.
Ki (rat MCH1 receptor; [4]),"Ki (rat MCH1 receptor; Table 3c, read-out: rMCH1 Ki)",Ki [1],"Ki ([2]; Table 3c, read-out: hH1 Ki)","Ki [3, 5]",SMILES,Ki (rat MCH1 receptor),"Ki (rat MCH1 receptor; read-out: rMCH1 Ki, Table 3c)",Ki [2],Ki [3]
11.5 nM,11.5 nM,9650 nM,2000 nM,533 nM,COC(CCN1CCC(c2cccc(NC(=O)C(C)C)c2)CC1)c1ccc(Cl)cc1 (stereo not drawn) [Example 91],–,–,–,–
62 nM,62 nM,12000 nM,2450 nM,1490 nM,CC(C)C(=O)Nc1cccc(C2CCN(CCCCCCN3C(=O)c4ccccc4C3=O)CC2)c1 [Example 92],–,–,–,–
18.2 nM,18.2 nM,> 50000 nM,6590 nM,1590 nM,CC(C)C(=O)Nc1cccc(C2CCN(CCCCN3C(=O)c4ccccc4C3=O)CC2)c1 [Example 94],–,–,–,–
11.8 nM,11.8 nM,> 50000 nM,6400 nM,2940 nM,"CC(C)C(=O)Nc1cccc(C2CCN(CCCCCN3C(=O)c4ccccc4C3=O)CC2)c1 [Example 95, N-(3-{1-[5-(1,3-dioxo-1,3-dihydro-2H-isoindol-2-yl)pentyl]-4-piperidinyl]phenyl)-2-methylpropanamide]",–,–,–,–
50 nM,50 nM,7450 nM,273 nM,12.3 nM,CC(C)C(=O)Nc1cccc(C2CCN(CCCCc3ccccc3)CC2)c1 [Example 96],–,–,–,–
11.5 nM,11.5 nM,8670 nM,11100 nM,704 nM,CC(C)OC(CCN1CCC(c2cccc(NC(=O)C(C)C)c2)CC1)c1ccccc1 (stereo not drawn) [Example 100],–,–,–,–
1.6 nM,1.6 nM,42.2 nM,3.4 nM,18 nM,CC(C)C(=O)Nc1cccc(C2CCN(CCCC(c3ccc(F)cc3)c3ccc(F)cc3)CC2)c1 [Example 101],–,–,–,–
6.7 nM,6.7 nM,735 nM,6390 nM,452 nM,COc1ccc(O[C@H](CCN2CCC(c3cccc(NC(=O)C(C)C)c3)CC2)c2ccccc2)cc1OC [Example 104],–,–,–,–
3.9 nM,3.9 nM,1080 nM,304 nM,161 nM,COc1ccc(O[C@@H](CCN2CCC(c3cccc(NC(=O)C(C)C)c3)CC2)c2ccccc2)cc1 [Example 106],–,–,–,–
7.1 nM,7.1 nM,191 nM,1320 nM,221 nM,CC(C)C(=O)Nc1cccc(C2CCN(CC[C@H](Oc3ccc(C(F)(F)F)cc3)c3ccccc3)CC2)c1 [Example 109],–,–,–,–
13.6 nM,13.6 nM,281 nM,969 nM,310 nM,COc1cccc(O[C@@H](CCN2CCC(c3cccc(NC(=O)C(C)C)c3)CC2)c2ccccc2)c1 [Example 117],–,–,–,–
22.4 nM,22.4 nM,766 nM,25300 nM,1060 nM,COc1ccc(C(C)=O)cc1O[C@@H](CCN1CCC(c2cccc(NC(=O)C(C)C)c2)CC1)c1ccccc1 [Example 119],–,–,–,–
5.9 nM,5.9 nM,133 nM,2150 nM,511 nM,CC(C)C(=O)Nc1cccc(C2CCN(CC[C@H](Oc3cc(F)ccc3F)c3ccccc3)CC2)c1 [Example 123],–,–,–,–
